Experimental findings from patent US11708348B2, “Protease inhibitors for treatment of coronavirus infections” (The Scripps Research Institute, priority 2021, dated 2023) are described below.

The test system of the first experiment is SARS-CoV-2 strain USA-WA1/2020. As to the kind of experiment: microbe, parasite or virus in culture. In kind it is cell-based. Conditions: Severe acute respiratory syndrome coronavirus 2, HeLa-ACE2, 24 h, HeLa-ACE2 cells, SARS-CoV-2 infection, 24 h; cells given as a bound; read-out: EC50, uM (Hela).
As for `CC(C)C[C@H](NC(=O)C(=O)Nc1ccccc1F)C(=O)N[C@@H](CC1CCCCC1)C(=O)COc1c(F)c(F)cc(F)c1F` [Compound 80, N1-((S)-1-(((S)-1-cyclohexyl-3-oxo-4-(2,3,5,6-tetrafluorophenoxy)butan-2-yl)amino)-4-methyl-1-oxopentan-2-yl)-N2-(2-fluorophenyl)oxalamide], the EC50 is more than 1 µM.

The experiment is the same for the next values; noted with them: Severe acute respiratory syndrome coronavirus 2, HeLa-ACE2, 24 h, HeLa-ACE2 cells, SARS-CoV-2 infection, 24 h; class symbols; read-out: EC50, uM (Hela).
As for `CC(C)C[C@H](NC(=O)C(=O)Nc1cccc(F)c1F)C(=O)N[C@@H](C[C@@H]1CCNC1=O)C(=O)COc1c(F)c(F)cc(F)c1F` [Compound 71, N1-(2,3-difluorophenyl)-N2-((S)-4-methyl-1-oxo-1-(((S)-3-oxo-1-((S)-2-oxopyrrolidin-3-yl)-4-(2,3,5,6-tetrafluorophenoxy)butan-2-yl)amino)pentan-2-yl)oxalamide], the EC50 was 0.05 to 0.2 µM. Same read-out and setting: for `CC(C)C[C@H](NC(=O)C(=O)Nc1cc(F)ccc1F)C(=O)N[C@@H](C[C@@H]1CCNC1=O)C(=O)COc1c(F)c(F)cc(F)c1F` [Compound 72, Nl-(2,5-difluorophenyl)-N2-((S)-4-methyl-1-oxo-1-(((S)-3-oxo-1-((S)-2-oxopyrrolidin-3-yl)-4-(2,3,5,6-tetrafluorophenoxy)butan-2-yl)amino)pentan-2-yl)oxalamide] the value was 0.05 to 0.2 µM; for `Cc1cc(F)ccc1NC(=O)C(=O)N[C@@H](CC(C)C)C(=O)N[C@@H](C[C@@H]1CCNC1=O)C(=O)COc1c(F)c(F)cc(F)c1F` [Compound 74, N1-(4-fluoro-2-methylphenyl)-N2-((S)-4-methyl-1-oxo-1-(((S)-3-oxo-1-((S)-2-oxopyrrolidin-3-yl)-4-(2,3,5,6-tetrafluorophenoxy)butan-2-yl)amino)pentan-2-yl)oxalamide], 0.2 to 0.5 µM.

For `CC(C)C[C@H](NC(=O)C(=O)Nc1ccccc1C#N)C(=O)N[C@@H](C[C@@H]1CCNC1=O)C(=O)COc1c(F)c(F)cc(F)c1F` [Compound 75, N1-(2-cyanophenyl)-N2-((S)-4-methyl-1-oxo-1-(((S)-3-oxo-1-((S)-2-oxopyrrolidin-3-yl)-4-(2,3,5,6-tetra-fluorophenoxy)butan-2-yl)amino)pentan-2-yl)oxalamide], the EC50 lay in the range of 0.05 to 0.2 µM. On the same count and under the same terms, the same measure for `CC(C)C(F)(F)C(NC(=O)C(=O)Nc1ccccc1F)C(=O)N[C@@H](C[C@@H]1CCNC1=O)C(=O)COc1c(F)c(F)cc(F)c1F` (stereo partly drawn) [Compound 76, N1-(3,3-difluoro-4-methyl-1-oxo-1-(((S)-3-oxo-1-((S)-2-oxopyrrolidin-3-yl)-4-(2,3,5,6-tetrafluorophenoxy)butan-2-yl)amino)pentan-2-yl)-N2-(2-fluorophenyl)oxalamide]: 0.05 to 0.2 µM.

On to `Cc1cc(Cl)ccc1NC(=O)C(=O)N[C@@H](CC(C)C)C(=O)N[C@@H](C[C@@H]1CCNC1=O)C(=O)COc1c(F)c(F)cc(F)c1F` [Compound 77, N1-(4-chloro-2-methylphenyl)-N2-((S)-4-methyl-1-oxo-1-(((S)-3-oxo-1-((S)-2-oxopyrrolidin-3-yl)-4-(2,3,5,6-tetrafluorophenoxy)butan-2-yl)amino)pentan-2-yl)oxalamide], for which the EC50 was less than 0.05 µM. Still for that read-out and setting: the same measure for `CC(C)C[C@H](NC(=O)C(=O)Nc1ccc(F)cc1F)C(=O)N[C@@H](C[C@@H]1CCNC1=O)C(=O)COc1c(F)c(F)cc(F)c1F` [Compound 78, N1-(2,4-difluorophenyl)-N2-((S)-4-methyl-1-oxo-1-(((S)-3-oxo-1-((S)-2-oxopyrrolidin-3-yl)-4-(2,3,5,6-tetrafluorophenoxy)butan-2-yl)amino)pentan-2-yl)oxalamide]: less than 0.05 µM; for `COc1ccc(F)cc1NC(=O)C(=O)N[C@@H](CC(C)C)C(=O)N[C@@H](C[C@@H]1CCNC1=O)C(=O)COc1c(F)c(F)cc(F)c1F` [Compound 79, N1-(5-fluoro-2-methoxyphenyl)-N2-((S)-4-methyl-1-oxo-1-(((S)-3-oxo-1-((S)-2-oxopyrrolidin-3-yl)-4-(2,3,5,6-tetrafluorophenoxy)butan-2-yl)amino)pentan-2-yl)oxalamide]: 0.05 to 0.2 µM; for `CC(C)C[C@H](NC(=O)C(=O)NCC1CCCC1)C(=O)N[C@@H](C[C@@H]1CCNC1=O)C(=O)COc1c(F)c(F)cc(F)c1F` [Compound 81, N^1-(cyclopentylmethyl)-N^2—((S)-4-methyl-1-oxo-1-(((S)-3-oxo-1-((S)-2-oxopyrrolidin-3-yl)-4-(2,3,5,6-tetrafluorophenoxy)butan-2-yl)amino)pentan-2-yl)oxalamide]: 0.05 to 0.2 µM. Same read-out and setting: for `Cc1cccc(F)c1NC(=O)C(=O)N[C@@H](CC(C)C)C(=O)N[C@@H](C[C@@H]1CCNC1=O)C(=O)COc1c(F)c(F)cc(F)c1F` [Compound 82, N1-(2-fluoro-6-methylphenyl)-N2-((S)-4-methyl-1-oxo-1-(((S)-3-oxo-1-((S)-2-oxopyrrolidin-3-yl)-4-(2,3,5,6-tetrafluorophenoxy)butan-2-yl)amino)pentan-2-yl)oxalamide] the value was less than 0.05 µM; for `Cc1ccc(F)cc1NC(=O)C(=O)N[C@@H](CC(C)C)C(=O)N[C@@H](C[C@@H]1CCNC1=O)C(=O)COc1c(F)c(F)cc(F)c1F` [Compound 83, Nl-(5-fluoro-2-methylphenyl)-N2-((S)-4-methyl-1-oxo-1-(((S)-3-oxo-1-((S)-2-oxopyrrolidin-3-yl)-4-(2,3,5,6-tetrafluorophenoxy)butan-2-yl)amino)pentan-2-yl)oxalamide], less than 0.05 µM; for `CC(C)C[C@H](NC(=O)Nc1ccccc1F)C(=O)N[C@@H](C[C@@H]1CCNC1=O)C(=O)COc1c(F)c(F)cc(F)c1F` [Compound 84, (S)-2-(3-(2-fluorophenyl)ureido)-4-methyl-N-((S)-3-oxo-1-((S)-2-oxopyrrolidin-3-yl)-4-(2,3,5,6-tetrafluorophenoxy)butan-2-yl)pentanamide], 0.05 to 0.2 µM. For `CC(C)C[C@H](NC(=O)C(=O)Nc1ccccc1C(C)C)C(=O)N[C@@H](C[C@@H]1CCNC1=O)C(=O)COc1c(F)c(F)cc(F)c1F` [Compound 86, Nl-(2-isopropylphenyl)-N2-((S)-4-methyl-1-oxo-1-(((S)-3-oxo-1-((S)-2-oxopyrrolidin-3-yl)-4-(2,3,5,6-tetrafluorophenoxy)butan-2-yl)amino)pentan-2-yl)oxalamide], the EC50 is less than 0.05 µM. The same measure, in the same setting: for `CC(C)C[C@H](NC(=O)C(=O)Nc1cc(F)c(Br)c(F)c1)C(=O)N[C@@H](C[C@@H]1CCNC1=O)C(=O)COc1c(F)c(F)cc(F)c1F` [Compound 87, N1-(4-bromo-3,5-difluorophenyl)-N2-((S)-4-methyl-1-oxo-1-(((S)-3-oxo-1-((S)-2-oxopyrrolidin-3-yl)-4-(2,3,5,6-tetrafluorophenoxy)butan-2-yl)amino)pentan-2-yl)oxalamide] the value was 0.05 to 0.2 µM.

As for `O=C(Nc1ccccc1Cl)C(=O)N[C@@H](CC1CCC(F)(F)CC1)C(=O)N[C@@H](C[C@@H]1CCNC1=O)C(=O)COc1c(F)c(F)cc(F)c1F` [Compound 88, N1-(2-chlorophenyl)-N2-((S)-3-(4,4-difluorocyclohexyl)-1-oxo-1-(((S)-3-oxo-l-((S)-2-oxopyrrolidin-3-yl)-4-(2,3,5,6-tetrafluorophenoxy)butan-2-yl)amino)propan-2-yl)oxalamide], the EC50 lay in the range of 0.05 to 0.2 µM. Same read-out and setting: the same measure for `Cc1c(F)cccc1NC(=O)C(=O)N[C@@H](CC(C)C)C(=O)N[C@@H](C[C@@H]1CCNC1=O)C(=O)COc1c(F)c(F)cc(F)c1F` [Compound 89, N1-(3-fluoro-2-methylphenyl)-N2-((S)-4-methyl-1-oxo-1-(((S)-3-oxo-1-((S)-2-oxopyrrolidin-3-yl)-4-(2,3,5,6-tetrafluorophenoxy)butan-2-yl)amino)pentan-2-yl)oxalamide]: less than 0.05 µM. On the same count and under the same terms, the same measure for `CC(C)[C@H](NC(=O)C(=O)Nc1ccccc1F)C(=O)N[C@@H](C[C@@H]1CCNC1=O)C(=O)COc1c(F)c(F)cc(F)c1F` [Compound 90, N1-(2-fluorophenyl)-N2-((S)-3-methyl-1-oxo-1-(((S)-3-oxo-1-((S)-2-oxopyrrolidin-3-yl)-4-(2,3,5,6-tetrafluorophenoxy)butan-2-yl)amino)butan-2-yl)oxalamide]: 0.05 to 0.2 µM; for `O=C(Nc1ccccc1F)C(=O)N1CCC[C@H]1C(=O)N[C@@H](C[C@@H]1CCNC1=O)C(=O)COc1c(F)c(F)cc(F)c1F` [Compound 91, (S)-1-(2-((2-fluorophenyl)amino)-2-oxoacetyl)-N-((S)-3-oxo-1-((S)-2-oxopyrrolidin-3-yl)-4-(2,3,5,6-tetrafluorophenoxy)butan-2-yl)pyrrolidine-2-carboxamide]: 0.5 to 1 µM; for `O=C(Nc1ccccc1Cl)C(=O)N[C@@H](CC1CCCCC1)C(=O)N[C@@H](C[C@@H]1CCNC1=O)C(=O)COc1c(F)c(F)cc(F)c1F` [Compound 92, N1-(2-chlorophenyl)-N2-((S)-3-cyclohexyl-1-oxo-1-(((S)-3-oxo-1-((S)-2-oxopyrrolidin-3-yl)-4-(2,3,5,6-tetrafluorophenoxy)butan-2-yl)amino)propan-2-yl)oxalamide]: less than 0.05 µM. The same measure, in the same setting: the same measure for `Cc1ccccc1NC(=O)C(=O)N[C@@H](CC1CCCCC1)C(=O)N[C@@H](C[C@@H]1CCNC1=O)C(=O)COc1c(F)c(F)cc(F)c1F` [Compound 93, N1-((S)-3-cyclohexyl-1-oxo-1-(((S)-3-oxo-1-((S)-2-oxopyrrolidin-3-yl)-4-(2,3,5,6-tetrafluorophenoxy)butan-2-yl)amino)propan-2-yl)-N2-(o-tolyl)oxalamide]: less than 0.05 µM.

The same experiment, now with this note: Severe acute respiratory syndrome coronavirus 2, HeLa-ACE2, 24 h; read-out: EC50, uM (Hela).
Take `CC(C)C[C@H](NC(=O)C(=O)Nc1ccccc1)C(=O)N[C@@H](C[C@@H]1CCNC1=O)C(=O)COP(=O)(c1ccccc1)c1ccccc1` [Compound 73, (S)-3-((S)-4-methyl-2-(2-oxo-2-(phenylamino)acetamido)-pentanamido)-2-oxo-4-((S)-2-oxopyrrolidin-3-yl)butyl-diphenylphosphinate]: the EC50 is 0.05 to 0.2 µM.

A word on the EC50: it is the concentration at which the effect is half-maximal.
